The values below come from patent US20150238425A1, “MINI-TABLETS” (DSM SINOCHEM PHARMACEUTICALS NETHERLANDS B.V., priority 2012, published 2015).

Data set [1] can be described thus: Stability of mini-tablets (Series 1-8) compared to an amoxicillin reference sample as a function of time. Format: physicochemical. As for the experimental part: (§1) The 8 mini-tablets prepared in Example 1 and an amoxicillin reference sample were analyzed for stability. Stability data for clavulanic acid in mini-tablets compared to a clavulanic acid reference sample were also analyzed for stability.

The nature of data set [2]: Stability of mini-tablets containing clavulanic acid compared to a clavulanic acid reference sample as a function of time. The format is physicochemical. Here is the method: as §1

With `CC1(C)S[C@@H]2[C@H](NC(=O)[C@H](N)c3ccc(O)cc3)C(=O)N2[C@H]1C(=O)O` [Amoxicillin reference, Amoxicillin], the entries for the “Stability (amoxicillin) as a function of time” value in data set [1] (0 weeks), in data set [1] (1 week) and in data set [1] (49 weeks) were 100.0, 100.0 and 97.8, respectively.

As to `O=C(O)[C@H]1/C(=C/CO)O[C@@H]2CC(=O)N21` [Clavulanic acid reference, Clavulanic acid], the figures for the Stability (clavulanic acid) as a function of time in data set [2] (0 weeks), in data set [2] (1 week) and in data set [2] (26 weeks) were 100%, 86.4% and 88.4%, respectively.
